Laboratory results as given in US20050180947A1, “Novel application of vaccination against TNF-alpha” (priority 2002, published 2005).

How the values were obtained:
[1] = tested on: rats with sciatic nerve constriction injury (CCI); conditions: spinal administration prior to CCI; cited from earlier work
[2] = tested on: Male Sprauge-Dawley rats, partial sciatic nerve ligation (PSNI model); test: Thermal hyperalgesia (plantar test, hind paw withdrawal latency) in the partial sciatic nerve ligation (PSNI/PSNL) model; format: in vivo, rat
Text: Male Sprauge-Dawley rats (200-600 g) were used in all the experiments. The rats were permitted to acclimate 1 week before use in the experiments. The rats were marked with a speed marker on their tails and normally kept in groups of 2-3 per cage pre- and postoperatively. They were housed in clear plastic cages with solid floors covered with sawdust in a normal day/night cycle. Water and food were supplied ad libitum.
The method of partial sciatic nerve injury is developed by Seltzer. Before surgery, the rats were shaved and washed with iodine solution (Iobac vet.) on the surgical area. The left sciatic nerve was exposed at high-thigh level by making a 2-3 cm incision in the skin. The skin was then freed from the connective tissue surrounding the incision in order to assure free movement of the leg after skin stapling. Using blunt dissection through the biceps femoris, the nerve was exposed and carefully freed from surrounding connective tissue at a site near the trochanter just below the point at which the posterior biceps semitendinosus nerve branches off the common sciatic nerve. Using a small pincette slid under the nerve, the nerve was gently lifted up and fixed. An 8/0 Ethilon suture was inserted into the nerve and tightly ligated so that the dorsal 1/3-1/2 of the nerve thickness was trapped in the ligature. The muscle was closed with 2-3 muscle sutures (4/0 vicryl), and the skin closed with 3-4 skin staples.
Plantar test (Ugo Basile) was used in this study to asses the nociceptive response.
The rats were placed in the clear plastic chamber (18 cm×29 cm×12.5 cm) allowed to acclimate to the new environment for about 5 min. Before testing. During this time period the rat was showing exploratory behaviour e.g. standing on its hind leg. When the rat had been acclimated, it stood quietly with occasional bouts of grooming. The radiant heat score beneath the class floor was pointed at the planter hind paw with help from the white sight marks engraved on the top of the I.R vessel.
The infrared (IR) source was then started and the withdrawal latency recorded.
When the rat felt pain and withdrew its paw, the sudden drop in radiation led to a automatic stop of the IR source and the time counter and the withdrawal latency could be determined to the nearest 0.1 sec.
The withdrawal latency was every time tested 5 times with intervals of 5 min. The average of the 5 measurements were then used as the withdrawal latency of the specific rat.
Rats, which were undergoing PSNL, were only tested on the operated left leg. 3 consecutive days before the operation, the withdrawal latency of the left leg was measured using the average of the 3 days as the basic withdrawal latency. The rat was then tested postoperatively for more days.
The difference score, expressed as percent reduction from the basic level to the postoperative level measurement, was used as an index for hyperalgesia: [formula] (pom: postoperative measurement)
Group averages appear with the standard error of the mean. The significance level of difference between means of various groups at certain postoperative times was examined by Student's t-test. The difference between the same group but at different days was examined by ANOVA.

[3] = Soluble expression of TNF-α variants in E. coli; format: physicochemical
Text: Insertion of the PADRE epitope (SEQ ID NO: 4) into loop 3 in position Gly108-Ala109 is a promising approach to prepare TNF-α variants with a structure closely resembling the native TNF-α molecule. It has been deduced from the TNF-α crystal structure that a TH epitope inserted directly into this position will not have any neighbouring amino acid residues in close proximity to interact with.

[4] = bacterial host cells grown at 37° C.

Clc1cccc(Cl)c1N=C1NCCN1 [clonidine]
delay in onset of thermal hyperestesia compared to control groups [1]: 3 days | difference score in percent between the basic level and the postoperative measurement ([2]; clonidine 0.6 mg/kg once at day 4 postoperatively after testing, day 5): −0.2±8.5% | difference score in percent between the basic level and the postoperative measurement ([2]; clonidine 0.6 mg/kg orally started 2 hours pre PSNI, repeated to day 2, day 2): 2.6±3.1%

O=C1CCC(N2C(=O)c3ccccc3C2=O)C(=O)N1 (stereo not shown) [thalidomide]
difference score in percent between the basic level and the postoperative measurement ([2]; thalidomide 50 mg/kg orally daily from 2 h pre-operation, day 2): 33.3±4.1% | difference score in percent between the basic level and the postoperative measurement ([2]; thalidomide 50 mg/kg orally daily, day 4): 33.9±5.9% | difference score in percent between the basic level and the postoperative measurement ([2]; thalidomide 50 mg/kg orally daily, day 6): 40.5±3.2% | difference score in percent between the basic level and the postoperative measurement ([2]; thalidomide 50 mg/kg orally daily, day 8): 41.3±3.4% | difference score in percent between the basic level and the postoperative measurement ([2]; thalidomide 50 mg/kg orally daily, day 10): 30.6±5.3% | difference score in percent between the basic level and the postoperative measurement ([2]; thalidomide 100 mg/kg orally daily from 2 h pre-operation, day 2): 22.0±7.2% | difference score in percent between the basic level and the postoperative measurement ([2]; thalidomide 100 mg/kg orally daily, day 4): 32.4±6.4% | difference score in percent between the basic level and the postoperative measurement ([2]; thalidomide 100 mg/kg orally daily, day 6): 38.0±4.1% | difference score in percent between the basic level and the postoperative measurement ([2]; thalidomide 100 mg/kg orally daily, day 8): 34.1±5.4% | difference score in percent between the basic level and the postoperative measurement ([2]; thalidomide 100 mg/kg orally daily, day 10): 29.8±4.6%

TNF_T0: three TNFα monomers linked by two GlyGlyGly linkers; SEQ ID NO: 22 in PCT/DK02/00764
expression form in E. coli / bacterial cells [3]: soluble protein

infliximab
difference score (basic level vs postoperative withdrawal latency) versus saline control ([2]; infliximab 5 mg/kg i.v. 2 hours prior to PSNL, days 2, 4, 6 and 7 postoperatively): No significant differences | difference score in percent between the basic level and the postoperative measurement ([2]; infliximab 5 μl (10 mg/ml) icv at days 2, 3 and 4, day 3): 39.2±5.6% | difference score in percent between the basic level and the postoperative measurement ([2]; infliximab 5 μl (10 mg/ml) icv at days 2, 3 and 4, day 4): 43.4±3.8% | difference score in percent between the basic level and the postoperative measurement ([2]; infliximab 5 μl (10 mg/ml) icv at days 2, 3 and 4, day 6): 47.2±4.0% | difference score in percent between the basic level and the postoperative measurement ([2]; infliximab 5 μl (10 mg/ml) icv at days 2, 3 and 4, day 8): 30.6±6.1% | nociceptive threshold compared to the control group ([2]; infliximab 5 μl (10 mg/ml) icv at days 2, 3 and 4 postoperatively): no significant difference | difference score in percent between the basic level and the postoperative measurement ([2]; infliximab 5 μl (10 mg/ml) icv at days 2, 3 and 4 postoperatively, day 2): 41.3±4.4% | difference score in percent between the basic level and the postoperative measurement ([2]; infliximab (10 mg/ml) icv continuously 0.5 μl/h by osmotic pump started day 3 preoperatively, day 2): 34.2±5.4% | difference score in percent between the basic level and the postoperative measurement ([2]; infliximab (10 mg/ml) icv continuously 0.5 μl/h started day 3 preoperatively, day 4): 34.6±5.4% | difference score in percent between the basic level and the postoperative measurement ([2]; infliximab (10 mg/ml) icv continuously 0.5 μl/h started day 3 preoperatively, day 6): 30.3±8.2% | difference score in percent between the basic level and the postoperative measurement ([2]; infliximab (10 mg/ml) icv continuously 0.5 μl/h started day 3 preoperatively, day 8): 27.5±5.2%

B1: TNF34: human TNF-α variant, PADRE epitope inserted into loop 3 at Gly108-Ala109; SEQ ID NO: 18 in PCT/DK02/00764 (protein)
chain: VRSSSRTPSDKPVAHVVANPQAEGQLQWLNRRANALLANGVELRDNQLVVPSEGLYLIYSQVLFKGQGCPSTHVLLTHTISRIAVSYQTKVNLLSAIKSPCQRETPEGAKFVAAWTLKAAAAEAKPWYEPIYLGGVFQLEKGDRLSAEINRPDYLDFAESGQVYFGIIAL
modifications: hTNF with inserted PADRE
fraction expressed as inclusion bodies [3, 4]: 95% | fraction of the expressed protein soluble in E. coli [3, 4]: approximately 5% | yield of soluble protein from the fermentation ([3]; fermentation temperature 25° C.): ~100%
